Source: patent US9682033B2, “Methods of treating postherpetic neuralgia with a topical formulation of a spiro-oxindole compound” (Teva Pharmaceuticals International GmbH, priority 2015, dated 2017)
“Also recorded” adds a separate entry of the source.

Tests used:
[1] = Protein binding in human plasma; type: in vitro ADME
dog hepatocytes = experiment: In vitro metabolic stability in hepatocytes (dog); type: in vitro ADME; settings: ^14C-spiro-oxindole compound
Description: A total of 8 metabolites were identified in samples (in vitro and in vivo) from rats, dogs, and humans. All metabolites found in humans were also found in the Good Laboratory Practice (GLP) toxicology species, the rat. Following oral administration of spiro-oxindole compound to humans, spiro-oxindole compound and 3 of its metabolites (M1, M5, and M6) were measurable. A similar metabolic profile was observed following topical administration to humans, albeit at much lower plasma concentrations, except metabolite M1 was not detected following human topical administration.

CYP450 2D6 = CYP450 2D6 (Homo sapiens, UniProt P10635); experiment: Reaction phenotyping with recombinant human CYP450 enzymes: CYP2D6; type: in vitro ADME; settings: recombinant human CYP450 2D6
Sequence of CYP450 2D6 (P10635 whole entry): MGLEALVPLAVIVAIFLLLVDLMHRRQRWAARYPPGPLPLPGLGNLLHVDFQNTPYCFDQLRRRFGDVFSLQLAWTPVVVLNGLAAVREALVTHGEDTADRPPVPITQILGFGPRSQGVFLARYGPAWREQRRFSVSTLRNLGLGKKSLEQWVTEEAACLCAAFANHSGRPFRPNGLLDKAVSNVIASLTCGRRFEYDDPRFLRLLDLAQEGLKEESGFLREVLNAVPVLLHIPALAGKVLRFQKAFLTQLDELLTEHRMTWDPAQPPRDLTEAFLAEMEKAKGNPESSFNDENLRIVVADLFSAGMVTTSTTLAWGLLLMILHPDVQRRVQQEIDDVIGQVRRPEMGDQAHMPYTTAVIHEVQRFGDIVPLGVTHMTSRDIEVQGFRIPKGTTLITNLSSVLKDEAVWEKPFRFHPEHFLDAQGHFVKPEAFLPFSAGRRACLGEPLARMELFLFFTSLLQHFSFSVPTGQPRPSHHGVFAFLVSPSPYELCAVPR

CYP450 2C9 = CYP450 2C9 (Homo sapiens, UniProt P11712); experiment: Reaction phenotyping with recombinant human CYP450 enzymes: CYP2C9; type: in vitro ADME; settings: recombinant human CYP450 2C9
Sequence of CYP450 2C9 (P11712 whole entry): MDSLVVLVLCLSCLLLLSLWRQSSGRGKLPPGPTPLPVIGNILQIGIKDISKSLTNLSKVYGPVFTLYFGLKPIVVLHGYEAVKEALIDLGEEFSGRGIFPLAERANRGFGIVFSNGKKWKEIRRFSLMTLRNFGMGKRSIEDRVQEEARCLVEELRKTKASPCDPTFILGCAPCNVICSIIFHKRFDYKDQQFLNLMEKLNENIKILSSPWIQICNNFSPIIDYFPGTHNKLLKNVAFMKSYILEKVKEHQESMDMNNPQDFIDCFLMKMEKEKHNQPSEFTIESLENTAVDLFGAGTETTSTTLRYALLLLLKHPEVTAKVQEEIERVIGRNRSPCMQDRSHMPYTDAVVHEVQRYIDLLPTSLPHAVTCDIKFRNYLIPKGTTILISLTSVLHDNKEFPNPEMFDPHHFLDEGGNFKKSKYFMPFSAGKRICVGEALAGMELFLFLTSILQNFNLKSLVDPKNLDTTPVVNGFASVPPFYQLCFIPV

[2] = tested on: several CYP450 enzymes including CYP3A4; experiment: In vitro CYP450 inhibition (human liver microsomes); type: in vitro ADME
Description: However, the compound is also highly bound to constituents in human plasma, so distribution into hepatocytes may be hindered, reducing the inhibition potential. In vitro data using human cryopreserved hepatocytes have also shown that the spiro-oxindole compound metabolite (M3) is an inhibitor of CYP3A4 and CYP2C19. Therefore, certain medications that undergo major metabolism by CYP3A4 and CYP2C19 are excluded as concomitant medications during this study.

rat bone marrow = experiment: In vivo rat bone marrow micronucleus test (GLP)
Description: The spiro-oxindole compound was not genotoxic in the standard battery of genotoxicity tests (GLP), including a bacterial reverse mutation assay, an in vitro chromosome aberration assay in cultured human lymphocytes, and an in vivo rat bone marrow micronucleus test.

CYP3A4 = CYP3A4 (Homo sapiens, UniProt P08684); experiment: Drug-drug interaction study in healthy subjects: midazolam (CYP3A4 substrate) pharmacokinetics (Biological Example 5); settings: human, in vivo
Sequence of CYP3A4 (P08684 whole entry): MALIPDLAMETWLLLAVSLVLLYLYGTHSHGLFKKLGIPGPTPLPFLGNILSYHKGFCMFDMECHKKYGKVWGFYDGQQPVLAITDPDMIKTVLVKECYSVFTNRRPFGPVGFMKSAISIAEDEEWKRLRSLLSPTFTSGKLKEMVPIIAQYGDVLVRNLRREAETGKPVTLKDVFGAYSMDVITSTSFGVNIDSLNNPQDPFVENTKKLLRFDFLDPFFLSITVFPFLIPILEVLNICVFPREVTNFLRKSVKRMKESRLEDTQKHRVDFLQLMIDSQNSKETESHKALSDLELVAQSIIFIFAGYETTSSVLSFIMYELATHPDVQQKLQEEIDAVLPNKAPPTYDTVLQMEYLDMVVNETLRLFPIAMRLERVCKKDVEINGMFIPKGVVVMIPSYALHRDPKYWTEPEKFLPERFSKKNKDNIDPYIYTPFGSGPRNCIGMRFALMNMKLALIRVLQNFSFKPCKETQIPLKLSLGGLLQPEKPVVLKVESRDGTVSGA
Description: This was a single center, open-label, 1-sequence drug-drug interaction study in 32 healthy adult male and female subjects. The study consisted of a 28-day screening period, a 10-day inpatient treatment period, and a follow-up visit. Subjects meeting the study inclusion/exclusion requirements were admitted to the clinical research unit on day −1 and were confined until day 10.
Blood samples were collected for the assessment of the pharmacokinetics of midazolam and omeprazole.
The primary pharmacokinetic endpoints were the geometric mean ratios (90% confidence intervals [CIs]) for Cmax, AUC0-t, and AUC0-inf for midazolam and omeprazole on day 9 versus day 1.
Blood samples were collected for the assessment of the pharmacokinetics of the major metabolites of midazolam (1-OH-midazolam) and omeprazole (5-OH-omeprazole), and for the spiro-oxindole compound. Further secondary pharmacokinetic variables included Cmax, tmax, AUC0-t, AUC0-inf, CL/F, λz, t1/2, and % AUCext for 1-OH-midazolam and 5-OH-omeprazole, on days 1 and 9, and Cmax, morning predose concentrations (Ctrough), average plasma concentration over the dosing interval (Cave), and area under the plasma concentration-time curve over the dosing interval (AUC0-τ) were presented for the spiro-oxindole compound.
Descriptive statistics (n, mean, geometric mean, standard deviation [SD], % CV, median, minimum, and maximum) were used to summarize plasma midazolam, omeprazole and their metabolites, and the spiro-oxindole compound concentration for all subjects overall at each scheduled time point. Descriptive statistics (as noted above) were also used to summarize plasma omeprazole, 5-OH-omeprazole, and the spiro-oxindole compound concentration for all subjects overall by CYP2C19 genotype at each scheduled time point. Pharmacokinetic parameters were derived by noncompartmental analysis. Descriptive statistics (as noted above) were used to summarize the calculated pharmacokinetic parameters for midazolam, omeprazole and their metabolites, and the spiro-oxindole compound by treatment for all subjects. Descriptive statistics (as noted above) were also used to summarize the calculated pharmacokinetic parameters for omeprazole, 5-OH-omeprazole, and the spiro-oxindole compound by treatment and CYP2C19 genotype. Plots of geometric mean and individual plasma concentrations and of select pharmacokinetic parameters for midazolam, omeprazole and their metabolites and the spiro-oxindole compound at select sampling times were provided. Additionally, plots of individual select pharmacokinetic parameters by CYP2C19 phenotype for omeprazole at select time points were provided.

SMILES: O=C1N(Cc2ccc(C(F)(F)F)o2)c2ccccc2[C@]12COc1cc3c(cc12)OCO3 [spiro-oxindole compound, (S)-1′-{[5-(trifluoromethyl)furan-2-yl]methyl}spiro[furo[2,3-f][1,3]benzodioxole-7,3′-indol]-2′(1′H)-one]
- protein bound [1]: 99.4%
- in vitro metabolic stability in hepatocytes (dog hepatocytes): 61%
- contribution to spiro-oxindole compound metabolism (CYP450 2D6): likely to play a less extensive role
- contribution to spiro-oxindole compound metabolism (CYP450 2C9): limited or no involvement
- inhibition of CYP450 enzymes [2]: may inhibit several CYP450 enzymes including CYP3A4; also recorded: inhibitor of several CYP450 enzymes
- genotoxicity (rat bone marrow): not genotoxic
- effect on midazolam pharmacokinetics (in words) (CYP3A4): no relevant effect on midazolam pharmacokinetics
